From article PMC3551932, “STK295900, a Dual Inhibitor of Topoisomerase 1 and 2, Induces G2 Arrest in the Absence of DNA Damage” (PLoS ONE, 2013)

Experiments:
267B1 cells = assay: Cell growth inhibition assay, 267B1; type: cell-based, human; conditions: Table 2 comparison, 267B1, non-cancer, growth up to 4 days
From the text: (§1) Human epitheloid cervical carcinoma HeLa cells, human breast adenocarcinoma MCF7 and MDA-MB-231cells, human hepatocellular carcinoma HepG2 cells, human colon adenocarcinoma HT-29 cells, and human colorectal carcinoma HCT-116 cells were purchased from ATCC® and maintained in DMEM medium. Human prostate carcinoma PC-3 cells (purchased from ATCC®), human gastric carcinoma SNU-484 and SNU-601(obtained from Korean Cell Line Bank (KCLB)), human leukemia K-562 and HL-60 cells (purchased from ATCC®), immortalized human prostate epithelial 267B1cells, and immortalized human embryonic lung fibroblast MRC5CV1 cells were maintained in RPMI 1640 medium whereas immortalized retinal pigment epithelial hTERT RPE-1 cells (purchased from ATCC®) were maintained in DMEM/F12 medium. All cell lines were cultured in media supplemented with 10% fetal bovine serum, 100 U/ml penicillin, and […] streptomycin at 37°C in a 5% CO2 incubator.
(§2) Cells were seeded at the appropriate amount (1–2×10^3 cells) in triplicate in 96-well plates for 24 h and then treated with various concentrations of STK295900. Cell growth was determined by using EZ-CyTox cell viability assay kit (Daeil Lab. Service, Seoul, Korea). Ten microliters of WST solution were added to the treated cells at 24, 48, 72, and 96 h. Cells were further incubated at 37°C for 2 h and the absorbance was measured at 450 nm.

hTERT RPE-1 cells = assay: Cell growth inhibition assay, hTERT RPE-1; type: cell-based, human; conditions: Table 2 comparison, hTERT RPE-1, non-cancer, growth up to 4 days
From the text: as §1, §2

[1] = system: cancer (HeLa, MCF7, HepG2, and HT-29) and non-cancerous cell lines (hTERT RPE-1, 267B1, and MRC5CV1); assay: Cell growth inhibition assay, cancer and non-cancerous cell lines compared; type: cell-based, human
From the text: as §1, §2

[2] = molecular target: T1, calf thymus topoisomerase 1 (Bos taurus, UniProt F1MN93); assay: Supercoiled DNA relaxation assay for topoisomerase 1; type: biochemical
T1 construct: purified calf thymus topoisomerase 1; purchased Takara Bio, Shiga, Japan; host or cells: calf thymus (tissue-purified)
T1 sequence (F1MN93 1-767): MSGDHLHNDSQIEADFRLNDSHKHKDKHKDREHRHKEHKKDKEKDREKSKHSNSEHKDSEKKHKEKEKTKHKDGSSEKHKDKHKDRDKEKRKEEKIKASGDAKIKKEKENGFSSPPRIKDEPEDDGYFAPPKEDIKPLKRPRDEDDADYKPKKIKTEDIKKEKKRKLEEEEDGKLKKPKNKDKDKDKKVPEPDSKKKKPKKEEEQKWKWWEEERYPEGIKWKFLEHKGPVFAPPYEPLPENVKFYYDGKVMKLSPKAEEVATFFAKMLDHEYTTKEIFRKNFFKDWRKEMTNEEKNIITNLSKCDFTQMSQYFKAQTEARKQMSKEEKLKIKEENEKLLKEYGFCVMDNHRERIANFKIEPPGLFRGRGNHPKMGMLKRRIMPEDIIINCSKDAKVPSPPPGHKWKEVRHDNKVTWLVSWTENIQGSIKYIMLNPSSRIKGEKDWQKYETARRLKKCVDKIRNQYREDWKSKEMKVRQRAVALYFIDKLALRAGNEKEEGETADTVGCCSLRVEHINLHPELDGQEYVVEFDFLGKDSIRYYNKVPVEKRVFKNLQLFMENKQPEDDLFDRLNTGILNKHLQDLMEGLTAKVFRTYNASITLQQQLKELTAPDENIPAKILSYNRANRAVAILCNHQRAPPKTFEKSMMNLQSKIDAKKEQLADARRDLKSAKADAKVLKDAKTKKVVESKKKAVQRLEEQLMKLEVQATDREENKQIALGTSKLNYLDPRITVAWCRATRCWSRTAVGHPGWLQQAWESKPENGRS

HeLa cells [3] = assay: Immunoblot of cell cycle and DNA damage checkpoint proteins; type: cell-based, human; conditions: 24 h, STK295900 1 or 5 µM, camptothecin 10 µM, etoposide 10 µM
Procedure: (§3) Cells were lysed with cold RIPA buffer (50 mM Tris-HCl pH 8.0, 150 mM NaCl, 1% NP-40, 0.5% sodium deoxycholate, 0.1% SDS) containing freshly added protease inhibitor, phosphatase inhibitor (SIGMA), 1 mM DTT, and 1 mM Na3VO4 on ice for 1 h. Whole cell lysates were centrifuged at 15,000 rpm for 20 min and then the supernatant was transferred into a new tube. An appropriate amount of cell lysate was subjected to SDS-PAGE. Then the resolved proteins were transferred onto a PVDF membrane (Bio-Rad) for immunoblot analyses with specific antibodies. The proteins were detected using chemiluminescence solution (Thermo Scientific, Rockford, IL).
(A) Flow cytometric analysis for cell cycle distribution. HeLa cells were treated with the indicated concentrations of STK295900 for 24 h. Treated cells were then stained with propidium iodide (PI) and processed for cell cycle analysis. The bar graph represents the mean percentage of each cell cycle phase ± SD from three independent experiments. * = p<0.05 versus the respective G1, S, or G2/M phase of DMSO-treated cells. (B) Mitotic index of STK295900. HeLa cells were treated with the indicated concentrations of STK295900 for 24 h. Cells were then stained with Hoechst 33342 and mitotic cells were counted. […] (C) Cell cycle related proteins expression. […] Treated cells were lysed and subjected to immunoblot analyses with antibodies against cyclin A, cyclin B1, phospho-Histone H3 (S10), and Histone H3. β-actin was used as a loading control.
(A) G2/M transition regulated proteins expression. […] GAPDH was used as a loading control. (B) DNA damage-checkpoint related proteins. […] Images were analyzed on a fluorescence microscope.

MCF7 cells = assay: Cell growth inhibition assay, MCF7; type: cell-based, human; conditions: Table 2 comparison, MCF7, growth up to 4 days
From the text: as §1, §2

HeLa cells [4] = assay: Cell growth inhibition assay, HeLa; type: cell-based, human; conditions: Table 2 comparison, growth up to 4 days
From the text: as §1, §2

HepG2 cells = assay: Cell growth inhibition assay, HepG2; type: cell-based, human; conditions: Table 2 comparison, HepG2, growth up to 4 days
From the text: as §1, §2

MRC5CV1 cells = assay: Cell growth inhibition assay, MRC5CV1; type: cell-based, human; conditions: Table 2 comparison, MRC5CV1, non-cancer, growth up to 4 days
From the text: as §1, §2

HeLa cells [5] = assay: Antagonistic effect on Top poison-induced DNA damage (γ-H2A.X immunoblot); type: cell-based, human; conditions: DMSO pretreated, 10 µM or 30 µM, 1 h
Procedure: as §3
(§4) Supercoiled DNA relaxation assay for (A) topoisomerase 1 (Top 1) and (B) topoisomerase 2 (Top 2). Supercoiled pBR322 plasmid DNA was incubated at 37°C for 30 min with Top 1 enzyme (A) or Top 2α (B) in the presence of various concentrations of indicated compounds. DNA samples were separated by electrophoresis on a 1% agarose gel, stained with ethidium bromide, and visualized by UV light. (−), supercoiled DNA alone; oc, open circular; sc, supercoiled. […] HeLa cells were pretreated with 10 µM of STK295900 for 30 min and then incubated with the indicated concentrations of camptothecin for 1 h. Treated cells were lysed and subjected to immunoblot analyses with antibody against γ-H2A.X. β-actin was used as a loading control. […] HeLa cells were pretreated with STK295900 at 10, 20, 30, or 50 µM or ICRF-193 at 10 µM for 30 min. […] Treated cells were then lysed and subjected to immunoblot analyses with antibody against γ-H2A.X. β-actin was used as a loading control.
The lysates were subjected to immunoblot analyses with γ-H2A.X antibody.

HT-29 cells = assay: Cell growth inhibition assay, HT-29; type: cell-based, human; conditions: Table 2 comparison, HT-29, growth up to 4 days
From the text: as §1, §2

human topoisomerase 2α = human topoisomerase 2α (Homo sapiens, UniProt P11388); assay: Supercoiled DNA relaxation assay for topoisomerase 2α; type: biochemical; conditions: pBR322, 37°C, 30 min
Sequence of human topoisomerase 2α (P11388 whole entry): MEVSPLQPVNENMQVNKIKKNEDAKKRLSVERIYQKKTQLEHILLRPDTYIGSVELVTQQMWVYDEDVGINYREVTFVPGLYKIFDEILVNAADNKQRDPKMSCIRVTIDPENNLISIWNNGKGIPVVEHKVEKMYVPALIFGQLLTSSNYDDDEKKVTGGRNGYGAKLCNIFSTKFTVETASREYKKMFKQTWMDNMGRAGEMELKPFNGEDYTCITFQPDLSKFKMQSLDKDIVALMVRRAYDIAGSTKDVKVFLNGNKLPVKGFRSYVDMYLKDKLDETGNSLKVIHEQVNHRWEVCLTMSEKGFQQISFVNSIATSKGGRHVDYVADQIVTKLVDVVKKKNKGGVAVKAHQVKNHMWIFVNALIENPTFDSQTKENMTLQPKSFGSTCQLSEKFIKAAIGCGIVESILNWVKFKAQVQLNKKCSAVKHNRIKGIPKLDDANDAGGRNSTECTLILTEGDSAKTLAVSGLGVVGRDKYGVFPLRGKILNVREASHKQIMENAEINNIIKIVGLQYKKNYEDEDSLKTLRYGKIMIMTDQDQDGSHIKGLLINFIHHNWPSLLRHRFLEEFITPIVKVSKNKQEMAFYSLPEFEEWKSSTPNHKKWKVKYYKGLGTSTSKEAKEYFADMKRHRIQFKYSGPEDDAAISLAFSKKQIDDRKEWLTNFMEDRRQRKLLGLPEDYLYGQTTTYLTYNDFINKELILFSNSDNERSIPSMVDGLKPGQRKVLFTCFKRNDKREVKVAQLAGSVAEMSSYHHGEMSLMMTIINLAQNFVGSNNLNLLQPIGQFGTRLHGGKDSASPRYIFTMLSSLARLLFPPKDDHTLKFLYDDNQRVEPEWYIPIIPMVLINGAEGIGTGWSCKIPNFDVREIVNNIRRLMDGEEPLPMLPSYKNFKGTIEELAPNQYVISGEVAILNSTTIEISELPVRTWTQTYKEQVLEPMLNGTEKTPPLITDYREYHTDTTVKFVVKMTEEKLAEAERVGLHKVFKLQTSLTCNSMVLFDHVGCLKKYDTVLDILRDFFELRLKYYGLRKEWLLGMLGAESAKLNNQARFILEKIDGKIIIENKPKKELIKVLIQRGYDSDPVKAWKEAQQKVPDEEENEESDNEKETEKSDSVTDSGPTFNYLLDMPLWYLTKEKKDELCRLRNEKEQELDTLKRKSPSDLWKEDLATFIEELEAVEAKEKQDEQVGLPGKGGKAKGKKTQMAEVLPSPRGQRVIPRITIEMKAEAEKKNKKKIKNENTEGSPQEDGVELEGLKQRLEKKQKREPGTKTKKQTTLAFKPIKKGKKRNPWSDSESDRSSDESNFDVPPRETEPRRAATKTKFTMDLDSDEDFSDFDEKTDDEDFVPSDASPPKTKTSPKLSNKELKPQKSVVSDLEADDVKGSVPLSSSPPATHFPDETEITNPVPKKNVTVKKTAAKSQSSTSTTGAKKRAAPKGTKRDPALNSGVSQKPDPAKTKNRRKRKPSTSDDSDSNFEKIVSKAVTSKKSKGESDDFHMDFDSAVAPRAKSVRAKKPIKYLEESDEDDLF
Procedure: After incubation, the reaction was terminated by addition of 2 µl of 10% SDS. The reaction mixtures were treated with 50 µg/ml proteinase K for 30 min at 37°C and then DNA was extracted with CIA (chloroform:isoamyl alcohol, 24∶1). Samples were resolved by electrophoresis on a 1% agarose gel. After staining the electrophoresed gel with ethidium bromide, DNA bands were visualized by UV light and photographed on Gel Doc XR.
as §4

| Molecule | IC50 (267B1 cells; Homo sapiens, 96 h) [µM] | IC50 (hTERT RPE-1 cells; Homo sapiens, hTERT-RPE1, 96 h) [µM] | Phosphorylation of Cdk1 at T161 (HeLa cells [3]; nocodazole 200 ng/ml) | Wee1 and Cdc25C levels (HeLa cells [3]; nocodazole 200 ng/ml) | cyclin A and cyclin B1 levels (HeLa cells [3]; nocodazole 200 ng/ml) | inhibitory phosphorylation of Cdk1 (T14 and Y15) (HeLa cells [3]; nocodazole 200 ng/ml) | IC50 (MCF7 cells; Homo sapiens, MCF7, 96 h) [µM] | IC50 (HeLa cells [4]; Homo sapiens, 96 h) [µM] | IC50 (HepG2 cells; Homo sapiens, HepG2, 96 h) [µM] | IC50 (MRC5CV1 cells; Homo sapiens, 96 h) [µM] | IC50 (HT-29 cells; Homo sapiens, HT-29, 96 h) [µM] | Top 2α-mediated DNA relaxation (human topoisomerase 2α) | also measured |
| --- | --- | --- | --- | --- | --- | --- | --- | --- | --- | --- | --- | --- | --- |
| CC[C@@]1(O)C(=O)OCc2c1cc1n(c2=O)Cc2cc3ccccc3nc2-1 [Camptothecin] | < 0.01 | < 0.01 | strongly enhanced | reduction of Cdc25C | accumulations of cyclin A and cyclin B1 | abundance | 0.03 | 0.02 | 0.02 | 0.02 | 0.03 | – | IC50 ([1]; Homo sapiens, all cell lines tested (HeLa, MCF7, HepG2, HT-29, hTERT RPE-1, 267B1, MRC5CV1)): < 0.03 µM; Top 1-mediated DNA relaxation [2]: inhibited DNA relaxation activity of Top 1 in a dose-dependent manner; p53 and p21 levels (HeLa cells [3]): significantly increased; phosphorylation-dependent activation of ATM (S1981), ATR (S428), Chk1 (S345), and Chk2 (T68) (HeLa cells [3]): activation of ATM, Chk1, and Chk2; γ-H2A.X induction in control cells (immunoblot) (HeLa cells [5]): strongly induced γ-H2A.X |
| COc1cc([C@@H]2c3cc4c(cc3[C@@H](O[C@@H]3O[C@@H]5CO[C@@H](C)O[C@H]5[C@H](O)[C@H]3O)[C@H]3COC(=O)[C@H]23)OCO4)cc(OC)c1O [Etoposide] | 0.39 | 0.45 | – | – | – | – | 13.2 | 0.3 | 0.84 | 1.29 | 10.3 | inhibited Top 2α activity by reducing the relaxed DNA and increasing nicked-open-circular DNA | – |
| CCOc1ccc(-c2nc3ccc(-c4nc5ccc(N6CCN(C)CC6)cc5[nH]4)cc3[nH]2)cc1 [Hoechst 33342] | – | – | – | – | – | – | – | – | – | – | – | – | IC50 (267B1 cells): 0.84 µM; IC50 (hTERT RPE-1 cells): 1.01 µM; selectivity of toxicity, cancer versus non-cancer cells ([1]; cancer (HeLa, MCF7, HepG2, HT-29) vs non-cancer (hTERT RPE-1, 267B1, MRC5CV1)): diverse and non-selective against cancer cells; IC50 (MCF7 cells): 0.2 µM; IC50 (HeLa cells [4]): 4.56 µM; IC50 (HepG2 cells): 0.22 µM; IC50 (MRC5CV1 cells): 0.35 µM; IC50 (HT-29 cells): 0.65 µM |
| COC(=O)Nc1nc2ccc(C(=O)c3cccs3)cc2[nH]1 [nocodazole] | – | – | strongly enhanced | undetectable levels of Wee1 but activation of Cdc25C | high level of cyclin B1 and undetectable level of cyclin A | could not be detected | – | – | – | – | – | – | Histone H3 phosphorylation at S10 (HeLa cells [3]; nocodazole 200 ng/ml): detected only in cells treated with nocodazole |
| ICRF-193 | – | – | – | – | – | – | – | – | – | – | – | accumulation of supercoiled DNA | – |
